The record followed here is ChEMBL document CHEMBL5360569, “Inhibition of the pyroptosis-associated inflammasome pathway: The important potential mechanism of ginsenosides in ameliorating diabetes and its complications” (Eur J Med Chem, 2023).

This data set is described as follows: Cmax in po dosed human plasma. The format is ADME, organism-based. On the set-up: route po.

As for `CC(C)=CCC[C@](C)(O[C@H]1O[C@H](CO)[C@@H](O)[C@H](O)[C@H]1O)[C@H]1CC[C@]2(C)[C@@H]1[C@H](O)C[C@@H]1[C@@]3(C)CC[C@H](O)C(C)(C)[C@@H]3CC[C@]12C`, the Cmax was 8.35 ng/mL.
In turn, `CC(C)=CCC[C@](C)(O[C@@H]1O[C@H](CO[C@@H]2O[C@H](CO)[C@@H](O)[C@H](O)[C@H]2O)[C@@H](O)[C@H](O)[C@H]1O)[C@H]1CC[C@]2(C)[C@@H]1[C@H](O)C[C@@H]1[C@@]3(C)CC[C@H](O[C@@H]4O[C@H](CO)[C@@H](O)[C@H](O)[C@H]4O[C@@H]4O[C@H](CO)[C@@H](O)[C@H](O)[C@H]4O)C(C)(C)[C@@H]3CC[C@]12C` [GINSENOSIDE RB1] came in with a Cmax of 3.94 ng/mL.
